Assay results taken from ChEMBL document CHEMBL1201862, “PubChem BioAssay data set” (2004).
Each block holds one molecule with its values, some of them ahead of it. Activity calls are given as the source filed them.

Columns and labels:
[1] = molecular target: T1, X-box-binding protein 1 (Homo sapiens, UniProt P17861); assay type: functional, Cricetulus griseus;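 further: confirmatory dose-response counter-screen serving a CHOP assay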
T1 sequence (P17861 whole entry): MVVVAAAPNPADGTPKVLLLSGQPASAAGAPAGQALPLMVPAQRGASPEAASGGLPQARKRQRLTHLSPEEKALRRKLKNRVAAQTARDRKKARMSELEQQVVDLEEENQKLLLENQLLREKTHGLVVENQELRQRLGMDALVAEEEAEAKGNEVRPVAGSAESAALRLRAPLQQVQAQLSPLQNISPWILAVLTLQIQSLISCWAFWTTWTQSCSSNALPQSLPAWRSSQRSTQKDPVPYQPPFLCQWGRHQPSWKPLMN

[2] = Counterscreen for IDE inhibitors: Luminescence-based cell-based high throughput dose response assay to identify compounds that are cytotoxic to HEK cells. [Related pubchem assays: 434962 (Primary screen (IDE inhibitors in singlicate)), 449730 (Counterscreen (Cytotoxicity in triplicate)), 435028 (Confirmation (IDE inhibitors in triplicate)) …; assay type: functional; conditions: HEK293
[3] = molecular target: T2, Insulin-degrading enzyme (Homo sapiens, UniProt P14735); assay: Dose Response: Fluorescence polarization-based cell-based high throughput dose response assay for inhibitors of insulin-degrading enzyme (IDE). [Related pubchem assays: 434962 (Primary screen (IDE inhibitors in singlicate)), 449730 (Counterscreen (Cytotoxicity in triplicate)), 435028 (Confirmation (IDE inhibitors in triplicate)), 434984 (Summary …; assay type: functional
T2 sequence (P14735 whole entry): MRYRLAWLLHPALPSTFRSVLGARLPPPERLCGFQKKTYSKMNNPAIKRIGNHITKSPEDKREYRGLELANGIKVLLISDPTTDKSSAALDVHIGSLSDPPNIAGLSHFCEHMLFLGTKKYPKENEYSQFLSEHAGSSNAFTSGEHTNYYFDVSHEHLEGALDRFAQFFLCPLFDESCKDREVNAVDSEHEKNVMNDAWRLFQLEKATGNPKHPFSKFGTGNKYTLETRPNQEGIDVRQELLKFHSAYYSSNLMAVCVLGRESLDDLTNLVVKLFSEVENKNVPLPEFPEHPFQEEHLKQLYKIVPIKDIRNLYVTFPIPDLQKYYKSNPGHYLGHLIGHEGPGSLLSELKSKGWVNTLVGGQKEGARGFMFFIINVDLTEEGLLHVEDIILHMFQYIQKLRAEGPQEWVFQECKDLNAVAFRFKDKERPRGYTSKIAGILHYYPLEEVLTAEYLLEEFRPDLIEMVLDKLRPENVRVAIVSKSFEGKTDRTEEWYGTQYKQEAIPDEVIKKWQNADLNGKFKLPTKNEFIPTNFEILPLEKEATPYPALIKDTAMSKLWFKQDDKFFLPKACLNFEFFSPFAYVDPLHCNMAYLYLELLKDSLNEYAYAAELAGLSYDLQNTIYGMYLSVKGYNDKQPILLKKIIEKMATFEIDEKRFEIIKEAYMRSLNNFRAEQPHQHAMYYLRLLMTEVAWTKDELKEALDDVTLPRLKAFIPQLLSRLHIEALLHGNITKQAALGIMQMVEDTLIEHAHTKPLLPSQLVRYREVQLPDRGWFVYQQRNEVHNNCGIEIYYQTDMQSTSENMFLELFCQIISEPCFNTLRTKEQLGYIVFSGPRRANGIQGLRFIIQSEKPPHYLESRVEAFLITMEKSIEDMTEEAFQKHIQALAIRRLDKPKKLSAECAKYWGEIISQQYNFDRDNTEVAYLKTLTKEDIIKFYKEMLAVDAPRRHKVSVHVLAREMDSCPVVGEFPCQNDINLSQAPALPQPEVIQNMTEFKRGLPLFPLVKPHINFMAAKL

[4] = molecular target: SUMO-activating enzyme (Homo sapiens, UniProt Q9UBT2); assay: SUMOylation inhibitor hit validation, confirmation, SUMOylation inhibitor project, biochemical, AlphaScreen (AID 2018); assay type: functional
Sequence of SUMO-activating enzyme (Q9UBE0 whole entry): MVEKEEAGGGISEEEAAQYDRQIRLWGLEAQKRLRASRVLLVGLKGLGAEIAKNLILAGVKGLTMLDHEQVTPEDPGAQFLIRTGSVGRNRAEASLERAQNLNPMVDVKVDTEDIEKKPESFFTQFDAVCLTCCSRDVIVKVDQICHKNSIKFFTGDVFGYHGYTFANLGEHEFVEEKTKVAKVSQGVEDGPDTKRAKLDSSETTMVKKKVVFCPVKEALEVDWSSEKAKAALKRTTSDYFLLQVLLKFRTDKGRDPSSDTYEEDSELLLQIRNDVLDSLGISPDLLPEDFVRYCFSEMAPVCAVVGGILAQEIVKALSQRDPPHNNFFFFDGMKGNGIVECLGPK
Sequence of SUMO-activating enzyme (Q9UBT2 whole entry): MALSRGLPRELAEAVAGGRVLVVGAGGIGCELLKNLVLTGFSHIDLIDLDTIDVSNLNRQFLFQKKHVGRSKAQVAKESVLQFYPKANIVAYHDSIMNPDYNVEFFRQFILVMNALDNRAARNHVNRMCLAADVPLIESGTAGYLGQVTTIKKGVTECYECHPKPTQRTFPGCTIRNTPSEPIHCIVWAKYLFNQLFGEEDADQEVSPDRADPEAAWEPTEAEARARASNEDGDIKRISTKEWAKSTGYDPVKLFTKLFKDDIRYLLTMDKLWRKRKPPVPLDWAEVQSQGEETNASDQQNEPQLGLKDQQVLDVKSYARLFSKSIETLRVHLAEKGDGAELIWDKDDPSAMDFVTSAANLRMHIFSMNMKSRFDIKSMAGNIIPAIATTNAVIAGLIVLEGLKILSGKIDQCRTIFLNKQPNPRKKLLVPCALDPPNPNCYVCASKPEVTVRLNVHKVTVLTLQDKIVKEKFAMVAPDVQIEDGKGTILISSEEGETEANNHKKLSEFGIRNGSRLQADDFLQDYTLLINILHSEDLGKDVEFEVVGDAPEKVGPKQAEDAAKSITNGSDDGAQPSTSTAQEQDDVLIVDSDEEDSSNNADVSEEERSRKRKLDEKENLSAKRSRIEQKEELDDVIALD

[5] = growth suppression of PTEN-null colon cells, dose response, cell-based, HCT116 PTEN knockout (AID 1047); assay type: functional;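 further: HCT116 colon tumor cells with PTEN knocked out; cells exposed to compound for 60 hours before readout; potency for loss of cell viability measured by luminescence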
[6] = growth suppression of beta-catenin-knockout colon cells, dose response, cell-based, HCT116, human colon tumor (AID 1045); assay type: functional;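 further: HCT116 colon tumor cells with beta catenin knocked out; cells exposed to compound for 60 hours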
[7] = Luminescence Cell-Based Dose Retest to Confirm Inhibitors of Cancer Stem Cells. [Related pubchem assays (depositor defined):AID2717, AID2721]; assay type: functional; conditions: Homo sapiens
[8] = molecular target: T3, Microphthalmia-associated transcription factor (Homo sapiens, UniProt O75030); assay: TRPM1 promoter luciferase signal decrease, dose response, MITF inhibitor project, cell-based, SK-MEL-5, cherry-picked, set 3 (AID 493073); assay type: functional
T3 sequence (O75030 whole entry): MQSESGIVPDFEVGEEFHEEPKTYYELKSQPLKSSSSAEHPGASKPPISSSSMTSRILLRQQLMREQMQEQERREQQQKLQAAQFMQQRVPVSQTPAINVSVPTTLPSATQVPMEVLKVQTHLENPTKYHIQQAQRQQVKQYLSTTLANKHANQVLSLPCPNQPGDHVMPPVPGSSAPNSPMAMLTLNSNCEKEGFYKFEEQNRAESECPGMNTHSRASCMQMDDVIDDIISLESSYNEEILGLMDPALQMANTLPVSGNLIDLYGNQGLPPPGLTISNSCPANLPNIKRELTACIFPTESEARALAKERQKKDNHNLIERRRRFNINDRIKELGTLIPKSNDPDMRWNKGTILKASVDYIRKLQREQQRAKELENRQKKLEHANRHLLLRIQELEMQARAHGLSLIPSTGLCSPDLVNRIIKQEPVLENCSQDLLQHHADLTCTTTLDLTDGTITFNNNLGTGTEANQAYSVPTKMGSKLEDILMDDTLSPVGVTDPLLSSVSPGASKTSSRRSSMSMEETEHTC

[9] = Shn3 3'UTR reporter inhibitors, dose response, cell-based, Clone20 osteoblasts, firefly luciferase, cherry-picked (AID 624132); assay type: functional;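 further: firefly luciferase luminescence from reporter carrying the Shn3 3'UTR in osteoblasts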
[10] = HepG2 cell cytotoxicity, dose response, cytotoxicity control for Shn3 inhibitor project, CellTiter-Glo, cherry-picked (AID 624134); assay type: functional, cell-based
[11] = control 3'UTR Renilla luciferase suppression, dose response, counter-screen for Shn3 inhibitor project, cell-based, Clone20-Shn3RL, cherry-picked (AID 624133); assay type: functional
[12] = molecular target: Glyceraldehyde-3-phosphate dehydrogenase (Homo sapiens, UniProt P04406)
Sequence of Glyceraldehyde-3-phosphate dehydrogenase (P04406 whole entry): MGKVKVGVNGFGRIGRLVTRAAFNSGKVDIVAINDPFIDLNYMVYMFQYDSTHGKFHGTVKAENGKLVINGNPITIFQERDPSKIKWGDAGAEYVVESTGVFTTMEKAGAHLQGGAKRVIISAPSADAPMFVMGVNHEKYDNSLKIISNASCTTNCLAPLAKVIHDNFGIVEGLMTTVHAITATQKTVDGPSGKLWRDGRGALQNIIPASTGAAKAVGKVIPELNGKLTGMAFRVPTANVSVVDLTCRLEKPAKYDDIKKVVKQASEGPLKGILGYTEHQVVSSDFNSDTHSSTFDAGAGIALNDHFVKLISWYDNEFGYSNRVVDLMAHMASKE

[13] = molecular target: T4, Alkaline phosphatase, tissue-nonspecific isozyme (Homo sapiens, UniProt P05186); assay: human TNAP enzyme inhibitors, SAR follow-up, biochemical, luminescent, dose response (AID 1056)
T4 sequence (P05186 whole entry): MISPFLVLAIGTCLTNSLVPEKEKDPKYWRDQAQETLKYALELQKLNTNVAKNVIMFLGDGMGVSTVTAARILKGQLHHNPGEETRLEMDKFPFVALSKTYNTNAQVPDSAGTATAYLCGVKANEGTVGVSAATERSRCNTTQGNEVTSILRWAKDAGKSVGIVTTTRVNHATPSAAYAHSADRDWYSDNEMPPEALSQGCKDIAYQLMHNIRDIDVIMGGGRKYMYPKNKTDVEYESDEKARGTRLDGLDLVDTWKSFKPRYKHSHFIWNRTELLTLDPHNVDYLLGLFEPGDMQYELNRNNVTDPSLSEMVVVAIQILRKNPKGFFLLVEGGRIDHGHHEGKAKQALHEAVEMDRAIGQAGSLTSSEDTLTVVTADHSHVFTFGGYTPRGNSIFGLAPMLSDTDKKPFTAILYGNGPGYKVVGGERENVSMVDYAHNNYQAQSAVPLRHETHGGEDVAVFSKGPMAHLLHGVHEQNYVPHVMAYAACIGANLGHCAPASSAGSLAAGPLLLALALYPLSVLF

Structure (SMILES): O=C(O)CC12CC3CC(C1)CC(n1ncc(NCc4ccccc4Cl)c(Cl)c1=O)(C3)C2
IC50 [2]: > 55.7 µM (not active)
IC50 [3]: 9.59 µM (active)

Structure (SMILES): N#C/C(=C(/O)c1ccc(S(=O)(=O)N(CCCl)CCCl)cc1)c1nc2ccccc2[nH]1
IC50 [4]: 73.8 µM (active)

Structure (SMILES): CC(=O)OCCCNc1cc(Sc2ccc(Cl)cc2)c2nonc2c1[N+](=O)[O-]
EC50 [5]: 13.1 µM (active)
EC50 [6]: 11.3 µM (active)
AC50 [7]: 4.57 µM (active)
AC50 [8]: 10.9 µM (active)
Absolute IC50 (XBP1) [1]: 10 µM
AC50 [9]: 1.14 µM (active)
AC50 [10]: 43.7 µM (active)
AC50 [11]: 7.64 µM (active)

Other lines, results leading:

Absolute IC50 (XBP1) [1]: 10 µM
Structure (SMILES): Cc1ccc(C(C(=O)NC2CCCCC2)N(C(=O)Cc2c[nH]c3ccccc23)c2ccccc2C)o1 (stereo not given)

IC50 [4]: 90.5 µM (active)
Structure (SMILES): CCCC(=O)Nc1ccc2oc(-c3cncc(Br)c3)nc2c1

IC50 [12]: > 100 µM (not active)
IC50 [13]: 66.5 µM (active)
Structure (SMILES): O=C1c2ccccc2C(=O)N1c1nnc(CCc2ccccc2)[nH]1
